Patent publication US7420043B2, “Reagents for detecting efavirenz” (priority 2003, dated 2008)
Where two headings read alike, the source gives them in different places.

Experiments:
[1] = system: monoclonal antibody EFA 97.1; test: Cross-reactivity assay (competitive ELISA, ED50 ratio); type: binding, mouse; conditions: ED50 of efavirenz divided by ED50 of the drug, times 100
Text: Supernatants were subjected to serial dilutions and retested in the ELISA screen above omitting the competitive inhibition with free drug. The dilution providing for approximately a 50% reduction from the maximum OD was chosen for proceeding to cross-reactivity testing. This comprised repeating the preceding assay with the antibody at the chosen dilution and in the presence of varying concentrations of different drugs. FIG. 8 presents the results of such a determination.

HIV = conditions: cited from earlier work
[2] = cited from earlier work
[3] = Physician's Desk Reference; cited from earlier work

Compound	% Cross-reactivity [1] [%]	further results
Cc1cn([C@H]2C=C[C@@H](CO)O2)c(=O)[nH]c1=O [2′,3′-didehydro-3′-deoxythymidine]	0	–
Cc1cn([C@H]2C[C@H](N=[N+]=[N-])[C@@H](CO)O2)c(=O)[nH]c1=O [3′-azido-3′-deoxythymidine]	0	–
CC(C)CN(C[C@@H](O)[C@H](Cc1ccccc1)NC(=O)O[C@H]1CCOC1)S(=O)(=O)c1ccc(N)cc1 [amprenavir]	0	–
COC(=O)N[C@H](C(=O)N[C@@H](Cc1ccccc1)[C@@H](O)CN(Cc1ccc(-c2ccccn2)cc1)NC(=O)[C@@H](NC(=O)OC)C(C)(C)C)C(C)(C)C [atazanavir]	0	–
CC(C)Nc1cccnc1N1CCN(C(=O)c2cc3cc(NS(C)(=O)=O)ccc3[nH]2)CC1 [delaviridine]	0	–
O=C1Nc2ccc(Cl)cc2[C@@](C#CC2CC2)(C(F)(F)F)O1 [efavirenz]	100	virological failure, % of patients (HIV; patients with low plasma levels of efavirenz, <1000 μg/L, 85 total patients): 50%; virological failure, % of patients (HIV; plasma levels 1000-4000 μg/L or more than 4000 μg/L): 18-22%; CNS toxicity frequency, high versus mid plasma levels ([2]; >4000 μg/L compared with 1000-4000 μg/L): approximately three times more frequent; patients discontinuing therapy because of severity or persistence of CNS side effects ([2]; patients receiving efavirenz): about 4%; patients reporting CNS side effects (dizziness, hallucinations, nightmares, insomnia) ([2]; patients receiving efavirenz): 20-40%; peak levels [3]: 12.9 µM
CC(C)(C)NC(=O)[C@@H]1CN(Cc2cccnc2)CCN1C[C@@H](O)C[C@@H](Cc1ccccc1)C(=O)N[C@H]1c2ccccc2C[C@H]1O [indinavir]	0	–
Cc1cccc(C)c1OCC(=O)N[C@@H](Cc1ccccc1)[C@@H](O)C[C@H](Cc1ccccc1)NC(=O)[C@H](C(C)C)N1CCCNC1=O [lopinavir]	0	–
Cc1c(O)cccc1C(=O)N[C@@H](CSc1ccccc1)[C@H](O)CN1C[C@H]2CCCC[C@H]2C[C@H]1C(=O)NC(C)(C)C [nelfinavir]	0	–
Cc1ccnc2c1NC(=O)c1cccnc1N2C1CC1 [nevirapine]	0	–
CC(C)c1nc(CN(C)C(=O)N[C@H](C(=O)N[C@@H](Cc2ccccc2)C[C@H](O)[C@H](Cc2ccccc2)NC(=O)OCc2cncs2)C(C)C)cs1 [ritonavir]	0	–
CC(C)(C)NC(=O)[C@@H]1C[C@@H]2CCCC[C@@H]2CN1C[C@@H](O)[C@H](Cc1ccccc1)NC(=O)[C@H](CC(N)=O)NC(=O)c1ccc2ccccc2n1 [saquinavir]	0	–
